In the assay the target is full-length human ATR protein (Homo sapiens (Human), UniProt Q13535). Nature of the assay: Binding assay ATR (TR-FRET tracer displacement). As to conditions: TR-FRET. The source says: To determine of binding activity of the test compounds, full-length human ATR protein was expressed and purified together with ATRIP as described above. Furthermore, a fluorescently labelled compound (either tracer A or B as described above) was used as a tracer molecule. Detection of the binding event of the tracer was achieved by time-resolved fluorescence energy transfer (TR-FRET). We used an anti-GST-Terbium antibody (CisBio) that binds to the GST-tag at the N-terminus of ATR-kinase. […] Displacement of the fluorescent tracer by a test compound leads to a reduction of the TR-FRET-signal.
Sequence of full-length human ATR protein (Q13535 other isoform, or with tags, fused parts or gaps): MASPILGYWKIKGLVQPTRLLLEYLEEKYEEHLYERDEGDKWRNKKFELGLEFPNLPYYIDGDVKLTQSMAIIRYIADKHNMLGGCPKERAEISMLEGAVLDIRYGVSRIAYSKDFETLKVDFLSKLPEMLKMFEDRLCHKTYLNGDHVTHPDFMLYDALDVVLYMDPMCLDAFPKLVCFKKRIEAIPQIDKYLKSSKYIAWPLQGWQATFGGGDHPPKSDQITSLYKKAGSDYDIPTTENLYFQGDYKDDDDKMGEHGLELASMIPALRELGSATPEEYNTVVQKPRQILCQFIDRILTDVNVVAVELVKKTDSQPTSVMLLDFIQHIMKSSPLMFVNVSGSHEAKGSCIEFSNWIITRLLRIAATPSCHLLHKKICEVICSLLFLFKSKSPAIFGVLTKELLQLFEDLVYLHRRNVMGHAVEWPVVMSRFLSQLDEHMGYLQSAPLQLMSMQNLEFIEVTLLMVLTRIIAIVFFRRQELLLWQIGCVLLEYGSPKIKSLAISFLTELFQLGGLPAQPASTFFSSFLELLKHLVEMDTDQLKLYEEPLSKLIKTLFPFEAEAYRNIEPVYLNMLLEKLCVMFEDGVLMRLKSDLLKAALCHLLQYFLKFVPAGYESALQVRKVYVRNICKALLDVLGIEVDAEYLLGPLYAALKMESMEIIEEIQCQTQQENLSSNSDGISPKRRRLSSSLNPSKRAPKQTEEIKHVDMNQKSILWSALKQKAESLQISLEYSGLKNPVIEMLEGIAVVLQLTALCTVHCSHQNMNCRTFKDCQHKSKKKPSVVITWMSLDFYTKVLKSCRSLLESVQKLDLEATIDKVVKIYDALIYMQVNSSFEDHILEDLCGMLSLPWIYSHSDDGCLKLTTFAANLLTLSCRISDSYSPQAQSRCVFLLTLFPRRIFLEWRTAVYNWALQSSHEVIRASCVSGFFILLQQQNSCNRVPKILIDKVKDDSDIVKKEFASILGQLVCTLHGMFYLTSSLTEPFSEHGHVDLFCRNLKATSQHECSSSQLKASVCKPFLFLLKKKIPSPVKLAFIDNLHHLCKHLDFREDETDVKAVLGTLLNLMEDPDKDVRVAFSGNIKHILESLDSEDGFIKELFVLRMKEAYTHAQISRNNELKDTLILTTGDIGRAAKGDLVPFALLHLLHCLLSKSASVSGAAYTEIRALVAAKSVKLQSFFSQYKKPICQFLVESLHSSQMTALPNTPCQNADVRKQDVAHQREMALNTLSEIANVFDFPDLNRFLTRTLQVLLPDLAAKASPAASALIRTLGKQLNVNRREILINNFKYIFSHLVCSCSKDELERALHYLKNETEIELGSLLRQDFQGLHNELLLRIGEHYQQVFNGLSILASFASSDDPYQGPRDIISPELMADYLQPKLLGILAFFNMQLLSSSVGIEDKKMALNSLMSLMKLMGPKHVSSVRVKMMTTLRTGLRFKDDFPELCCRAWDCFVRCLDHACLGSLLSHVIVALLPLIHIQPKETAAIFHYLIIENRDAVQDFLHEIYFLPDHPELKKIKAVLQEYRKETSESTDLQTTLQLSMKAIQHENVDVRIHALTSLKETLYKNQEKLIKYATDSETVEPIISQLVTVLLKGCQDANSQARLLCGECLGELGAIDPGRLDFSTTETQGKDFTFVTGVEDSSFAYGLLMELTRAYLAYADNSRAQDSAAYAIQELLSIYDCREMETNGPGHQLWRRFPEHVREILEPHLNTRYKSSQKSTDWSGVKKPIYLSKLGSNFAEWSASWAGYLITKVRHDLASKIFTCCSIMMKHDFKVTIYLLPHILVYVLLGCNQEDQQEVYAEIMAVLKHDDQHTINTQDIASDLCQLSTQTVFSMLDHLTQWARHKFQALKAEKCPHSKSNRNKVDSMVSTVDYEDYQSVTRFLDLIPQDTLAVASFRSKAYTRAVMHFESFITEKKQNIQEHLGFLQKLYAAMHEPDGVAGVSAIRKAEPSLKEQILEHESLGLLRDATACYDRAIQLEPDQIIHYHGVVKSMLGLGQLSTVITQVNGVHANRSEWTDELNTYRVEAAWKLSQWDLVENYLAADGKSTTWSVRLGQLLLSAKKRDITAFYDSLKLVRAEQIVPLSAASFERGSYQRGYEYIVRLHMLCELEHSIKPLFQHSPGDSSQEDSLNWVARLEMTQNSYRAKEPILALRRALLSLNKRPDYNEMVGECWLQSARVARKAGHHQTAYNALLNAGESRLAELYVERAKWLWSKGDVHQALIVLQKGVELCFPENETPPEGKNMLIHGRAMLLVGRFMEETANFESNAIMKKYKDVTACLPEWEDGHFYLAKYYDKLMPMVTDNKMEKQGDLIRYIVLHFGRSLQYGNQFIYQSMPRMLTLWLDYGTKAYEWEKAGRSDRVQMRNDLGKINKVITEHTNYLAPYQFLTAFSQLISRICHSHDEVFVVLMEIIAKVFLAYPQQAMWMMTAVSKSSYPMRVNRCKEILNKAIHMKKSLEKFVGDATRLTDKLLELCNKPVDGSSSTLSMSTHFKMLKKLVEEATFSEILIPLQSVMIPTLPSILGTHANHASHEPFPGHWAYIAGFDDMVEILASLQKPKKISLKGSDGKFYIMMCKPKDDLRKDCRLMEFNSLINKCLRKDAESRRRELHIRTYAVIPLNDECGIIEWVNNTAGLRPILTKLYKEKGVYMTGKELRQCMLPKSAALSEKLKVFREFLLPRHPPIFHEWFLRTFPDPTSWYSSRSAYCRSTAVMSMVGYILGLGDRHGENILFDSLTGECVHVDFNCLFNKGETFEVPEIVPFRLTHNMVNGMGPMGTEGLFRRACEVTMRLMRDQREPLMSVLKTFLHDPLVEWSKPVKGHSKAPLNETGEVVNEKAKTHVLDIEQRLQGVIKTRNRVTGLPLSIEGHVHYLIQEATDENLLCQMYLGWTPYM
Sequence of full-length human ATR protein (Q8WXE1 other isoform, or with tags, fused parts or gaps partner): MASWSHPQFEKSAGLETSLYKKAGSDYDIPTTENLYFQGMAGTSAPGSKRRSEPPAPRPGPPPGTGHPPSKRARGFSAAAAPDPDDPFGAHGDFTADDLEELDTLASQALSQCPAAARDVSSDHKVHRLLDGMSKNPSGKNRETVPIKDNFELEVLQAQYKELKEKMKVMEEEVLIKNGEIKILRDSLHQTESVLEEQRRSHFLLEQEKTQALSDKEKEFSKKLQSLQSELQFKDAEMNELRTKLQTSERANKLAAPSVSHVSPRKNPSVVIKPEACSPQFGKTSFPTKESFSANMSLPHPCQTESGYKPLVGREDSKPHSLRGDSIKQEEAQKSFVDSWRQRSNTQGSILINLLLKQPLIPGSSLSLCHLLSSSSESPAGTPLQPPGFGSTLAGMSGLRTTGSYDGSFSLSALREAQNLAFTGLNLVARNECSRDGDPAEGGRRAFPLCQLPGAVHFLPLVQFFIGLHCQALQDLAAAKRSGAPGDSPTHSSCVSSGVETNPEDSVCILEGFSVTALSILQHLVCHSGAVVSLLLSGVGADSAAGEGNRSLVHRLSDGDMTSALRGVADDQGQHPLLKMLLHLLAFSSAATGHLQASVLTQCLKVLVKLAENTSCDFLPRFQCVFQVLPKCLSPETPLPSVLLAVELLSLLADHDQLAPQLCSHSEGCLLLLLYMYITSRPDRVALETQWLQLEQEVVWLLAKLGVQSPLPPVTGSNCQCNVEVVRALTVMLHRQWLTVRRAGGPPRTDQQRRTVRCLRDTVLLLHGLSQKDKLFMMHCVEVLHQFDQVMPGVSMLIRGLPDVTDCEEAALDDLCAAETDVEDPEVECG
For the assay 50 nl of a 100-fold concentrated solution of the test compound in DMSO was pipetted into a black low volume 384well microtiter plate (MTP, Greiner Bio-One, Frickenhausen, Germany). […] The ATR-working solution was incubated for 30 min at 22° C. prior to dispensing to pre-form the complex of antiGST-Tb+GST-ATR+ATRIP. Then, 3 μl of the ATR-working solution were added to the test compound and the mixture was incubated for 10 min at 22° C. to allow pre-binding of the test compounds to ATR/ATRIP. Then, 2 μl of a 100 nM solution of either tracer A or B in assay buffer were added to the ATR-working solution. The resulting mixture was incubated for 30 min at 22° C. […] The dilution series were prepared separately before the assay on the level of the 100 fold concentrated solutions in DMSO by serial 1:3.4 dilutions in duplicate values for each concentration. IC50 values were calculated by a 4 parameter fit using standard software (GraphPad prism or equivalent).
Background: In TR-FRET formats the signal depends on donor and acceptor labels being close together.

[1] abbreviates: tracer A, read-out: ATR binding (tracer A) IC50.
The mark [2] stands for this setting: tracer B, read-out: ATR binding (tracer B) IC50.

What is called IC50 is the concentration that gives 50% inhibition.

Like-named read-outs stand apart in the source and are kept apart here.

Regarding `C[C@@H]1COCCN1c1cc(-c2ccccc2)c2ccnc(-c3cc[nH]n3)c2n1` [Example 27, 2-((R)-3-methylmorpholin-4-yl)-4-phenyl-8-(2H-pyrazol-3-yl)-[1,7]naphthyridine], the IC50 under setting [1] was found to be 17.2 nM and the IC50 under setting [2] worked out at 10.9 nM.
`C[C@@H]1COCCN1c1cc(-c2cccc(S(C)(=O)=O)c2)c2ccnc(-c3cc[nH]n3)c2n1` [Example 28, 4-(3-methanesulphonylphenyl)-2-((R)-3-methylmorpholin-4-yl)-8-(2H-pyrazol-3-yl)-[1,7]naphthyridine]: the IC50 worked out at 17.6 nM under setting [1] and 8.4 nM under setting [2].
As for `C[C@@H]1COCCN1c1cc(C2CC2)c2ccnc(-c3cc[nH]n3)c2n1` [Example 29, 4-cyclopropyl-2-((R)-3-methylmorpholin-4-yl)-8-(1H-pyrazol-3-yl)-[1,7]-naphthyridine], the IC50 by setting is: under setting [1], 21.5 nM; under setting [2], 9.23 nM.
For `C[C@@H]1COCCN1c1cc(-c2ccc(S(C)(=N)=O)cc2)c2ccnc(-c3ccn[nH]3)c2n1` (stereo partly drawn) [Example 30, 4-[2-((R)-3-methylmorpholin-4-yl)-8-(2H-pyrazol-3-yl)-[1,7]naphthyridine-4-yl]phenyl-S-methylsulphoximide], in that order: 22.8 nM and 9.48 nM.
For `C[C@@H]1COCCN1c1cc(-c2cccc(S(C)(=N)=O)c2)c2ccnc(-c3ccn[nH]3)c2n1` (stereo partly drawn) [Example 31, 3-[2-((R)-3-methylmorpholin-4-yl)-8-(2H-pyrazol-3-yl)-[1,7]naphthyridine-4-yl]phenyl-S-methylsulphoximide], in that order: 86.6 nM and 45.1 nM.
For `C[C@@H]1COCCN1c1cc(S(C)(=O)=O)c2ccnc(-c3ccn[nH]3)c2n1` [Example 33, 2-[(3R)-3-methylmorpholin-4-yl]-4-(methylsulfonyl)-8-(1H-pyrazol-5-yl)-1,7-naphthyridine], in that order: 19.8 nM and 10.3 nM.
Take `N#Cc1cc(N2CCOCC2)nc2c(-c3cc[nH]n3)nccc12` [Example 34, 2-(morpholin-4-yl)-8-(1H-pyrazol-3-yl)-[1,7]naphthyridine-4-carbonitrile]: the IC50 runs as follows: under setting [1], 357 nM; under setting [2], 536 nM.
Turning to `C[C@@H]1COCCN1c1cc(C#N)c2ccnc(-c3ccn[nH]3)c2n1` [Example 35, 2-((R)-3-methylmorpholin-4-yl)-8-(-2H-pyrazol-3-yl]-[1,7]naphthyridine-4-carbonitrile], the concentration for half-maximal inhibition (IC50) under setting [1] was 122 nM and the IC50 under setting [2] was found to be 75.5 nM.
Consider `NC(=O)c1cc(N2CCOCC2)nc2c(-c3cc[nH]n3)nccc12` [Example 36, 2-morpholin-4-yl-8-(1H-pyrazol-3-yl)-[1,7]naphthyridine-4-carboxamide], for which, under setting [1], the IC50 came to 1500 nM.
Consider `CS(=O)(=O)Cc1cc(N2CCOCC2)nc2c(-c3ccn[nH]3)nccc12` [Example 37, 4-methanesulphonylmethyl-2-morpholin-4-yl-8-(2H-pyrazol-3-yl)-[1,7]naphthyridine], for which the IC50 by setting is: under setting [1], 170 nM; under setting [2], 127 nM.
On to `OCc1cc(N2CCOCC2)nc2c(-c3ccn[nH]3)nccc12` [Example 38, [2-(morpholin-4-yl)-8-(2H-pyrazol-3-yl)-[1,7]naphthyridine-4-yl]methanol], for which the IC50 by setting is: under setting [1], 502 nM; under setting [2], 405 nM.
On to `CS(=O)(=O)C1(c2cc(N3CCOCC3)nc3c(-c4ccn[nH]4)nccc23)CC1` [Example 39, 4-(1-methanesulphonylcyclopropyl)-2-(morpholin-4-yl)-8-(2H-pyrazol-3-yl)-[1,7]naphthyridine], for which the IC50 by setting is: under setting [1], 60.1 nM; under setting [2], 35.3 nM.
For `CC(C)Oc1cc(N2CCOCC2)nc2c(-c3ccc[nH]3)nccc12` [Example 41, 2-(morpholin-4-yl)-4-(propan-2-yloxy)-8-(1H-pyrrol-2-yl)-1,7-naphthyridine], in that order: 339 nM and 230 nM.
With `CS(=N)(=O)CCCOc1cc(N2CCOCC2)nc2c(-c3ccn[nH]3)nccc12` (stereo not shown) [Example 42, 4-[3-(S-methylsulfonimidoyl)propoxy]-2-(morpholin-4-yl)-8-(1H-pyrazol-5-yl)-1,7-naphthyridine], the IC50 was 484 nM under setting [1] and 533 nM under setting [2].
Take `CCOc1cc(N2CCOCC2)nc2c(-c3cc[nH]n3)nccc12` [Example 43, 4-ethoxy-2-(morpholin-4-yl)-8-(1H-pyrazol-3-yl)-[1,7]naphthyridine]: the IC50 turned out to be 493 nM under setting [1] and 258 nM under setting [2].
For `COc1cc(N2CCOCC2)nc2c(-c3cc[nH]n3)nccc12` [Example 44, 4-methoxy-2-(morpholin-4-yl)-8-(1H-pyrazol-3-yl)-[1,7]naphthyridine], in that order: 543 nM and 327 nM.
Turning to `CC(C)(O)COc1cc(N2CCOCC2)nc2c(-c3ccn[nH]3)nccc12` [Example 45, 2-methyl-1-{[2-(morpholin-4-yl)-8-(1H-pyrazol-5-yl)-1,7-naphthyridin-4-yl]oxy}propan-2-ol], under setting [1], the IC50 was found to be 293 nM.
For `c1cc(-c2nccc3c(OCC4CCCO4)cc(N4CCOCC4)nc23)[nH]n1` (stereo not shown) [Example 46, 2-(morpholin-4-yl)-8-(1H-pyrazol-5-yl)-4-(tetrahydrofuran-2-ylmethoxy)-1,7-naphthyridine], under setting [1], the IC50 worked out at 262 nM.
On the same count and under the same terms, as for `O=C1OCCC1Oc1cc(N2CCOCC2)nc2c(-c3ccn[nH]3)nccc12` (stereo not shown) [Example 47, 3-{[2-(morpholin-4-yl)-8-(1H-pyrazol-5-yl)-1,7-naphthyridin-4-yl]oxy}dihydrofuran-2(3H)-one], the figure is 1390 nM; as for `Cc1cc(COc2cc(N3CCOCC3)nc3c(-c4ccn[nH]4)nccc23)on1` [Example 48, 4-[(3-methyl-1,2-oxazol-5-yl)methoxy]-2-(morpholin-4-yl)-8-(1H-pyrazol-5-yl)-1,7-naphthyridine], 161 nM.
Take `Cc1cc(COc2cc(N3CCOCC3)nc3c(-c4ccn[nH]4)nccc23)no1` [Example 49, 4-[(5-methyl-1,2-oxazol-3-yl)methoxy]-2-(morpholin-4-yl)-8-(1H-pyrazol-5-yl)-1,7-naphthyridine]: the IC50 under setting [1] came to 200 nM.
As to `c1ccc(COc2cc(N3CCOCC3)nc3c(-c4cc[nH]n4)nccc23)cc1` [Example 50, 4-benzyloxy-2-(morpholin-4-yl)-8-(1H-pyrazol-3-yl)-[1,7]naphthyridine], the IC50 turned out to be 410 nM under setting [1] and 514 nM under setting [2].
For `CC(C)Oc1cc(N2CCOC[C@H]2C)nc2c(-c3cc[nH]n3)nccc12` [Example 51, 4-isopropoxy-2-((R)-3-methylmorpholin-4-yl)-8-(1H-pyrazol-3-yl)-[1,7]naphthyridine], in that order: 38 nM and 23.3 nM.
Regarding `C[C@@H]1COCCN1c1cc(OCCCCNC(=O)OC(C)(C)C)c2ccnc(-c3ccn[nH]3)c2n1` [Example 52, Tert-butyl [4-({2-[(3R)-3-methylmorpholin-4-yl]-8-(1H-pyrazol-5-yl)-1,7-naphthyridin-4-yl}oxy)butyl]carbamate], the IC50 came to 101 nM under setting [1] and 78.9 nM under setting [2].
For `COc1cc(N2CCOC[C@H]2C)nc2c(-c3cc[nH]n3)nccc12` [Example 53, 4-methoxy-2-((R)-3-methylmorpholin-4-yl)-8-(1H-pyrazol-3-yl)-[1,7]naphthyridine], in that order: 192 nM and 63.5 nM.
On to `C[C@@H]1COCCN1c1cc(OCCCNC(=O)OC(C)(C)C)c2ccnc(-c3ccn[nH]3)c2n1` [Example 54, Tert-butyl [3-({2-[(3R)-3-methylmorpholin-4-yl]-8-(1H-pyrazol-5-yl)-1,7-naphthyridin-4-yl}oxy)propyl]carbamate], for which the IC50 under setting [1] amounted to 288 nM and the 50% inhibitory concentration (IC50) under setting [2] stood at 129 nM.
As to `C[C@@H]1COCCN1c1cc(OCCN)c2ccnc(-c3ccn[nH]3)c2n1` [Example 55, 2-({2-[(3R)-3-methylmorpholin-4-yl]-8-(1H-pyrazol-5-yl)-1,7-naphthyridin-4-yl}oxy)ethanamine], the IC50 under setting [1] is 162 nM.
As to `C[C@@H]1COCCN1c1cc(OCCNC(=O)OC(C)(C)C)c2ccnc(-c3ccn[nH]3)c2n1` [Example 56, Tert-butyl [2-({2-[(3R)-3-methylmorpholin-4-yl]-8-(1H-pyrazol-5-yl)-1,7-naphthyridin-4-yl}oxy)ethyl]carbamate], the IC50 reads like this: under setting [1], 751 nM; under setting [2], 324 nM.
With `C[C@@H]1COCCN1c1cc(OCCCCN)c2ccnc(-c3ccn[nH]3)c2n1` [Example 57, 4-({2-[(3R)-3-methylmorpholin-4-yl]-8-(1H-pyrazol-5-yl)-1,7-naphthyridin-4-yl}oxy)butan-1-amine], under setting [1], the IC50 worked out at 230 nM.
As for `CC(C)Oc1cc(N2[C@H](C)COC[C@@H]2C)nc2c(-c3ccn[nH]3)nccc12` [Example 58, 2-[(3R,5S)-3,5-dimethylmorpholin-4-yl]-4-isopropoxy-8-(1H-pyrazol-5-yl)-1,7-naphthyridine], the IC50 stood at 413 nM under setting [1] and 615 nM under setting [2].

The values above are taken from patent publication US9549932B2, “2-(morpholin-4-yl)-1,7-naphthyridines” (BAYER PHARMA AKTIENGESELLSCHAFT, priority 2014, dated 2017).
